Several values for one entry are separate records, joined by “and”; a condition that tells them apart may be missing. Identical values can stand only once. Entries after “also recorded” stand apart in the source; their conditions may differ.
Experiments:
[1] = system: normoglycaemic Sprague-Dawley rats; assay: Oral Glucose Tolerance Test (OGTT), samples administered intravenously; format: in vivo; details: for effect on blood glucose concentration (in words): IV OGTT vs DMSO control and/or metformin; for Hypoglycaemic effect compared with control: combinations of oleic:palmitic acids, IV OGTT vs DMSO
Protocol: Crude hexane, ethyl acetate, and methanol extracts (50 mg/kg BW) were administered intravenously to normoglycaemic Sprague-Dawley rats. The Oral Glucose Tolerance Test (OGTT) was then carried out using the Accu-Check Advantage II glucose kit to examine their effect on blood glucose concentration. […] A comparison was carried out using metformin (25 mg/kg BW).
Crude hexane, ethyl acetate, and methanol extracts (50 mg/kg BW) were administered intravenously to normoglycaemic Sprague-Dawley rats. The Oral Glucose Tolerance Test (OGTT) was then carried out using the Accu-Check Advantage II glucose kit to examine their effect on blood glucose concentration.
Crude hexane, ethyl acetate, and methanol extracts (50 mg/kg BW) were administered intravenously to normoglycaemic Sprague-Dawley rats.
The dosage of the extracted fr1dbe (30 mg/kg BW) and the glucose loads (1.75 g/kg BW were administered to the rats intravenously and orally, respectively. The extract was administered intravenously in order to reduce the amounts of sample that were used for the bioassays. The volume of the negative control/carrier agent (DMSO) used was approximately 0.3 mL.
In order to determine the efficacy of the isolated compounds, a known oral hypoglycaemic drug, metformin was used to do a comparison. Metformin was obtained from Sigma-Aldrich (Cat. No. d15, 095-9) and OGTTs were done via intravenous (FIGS. 7-13) and oral administration (FIGS. 14-16).

[2] = system: rats; assay: Haemodynamic parameters (blood pressure and heart rate), non-invasive CODA machine; format: in vivo; details: for effect on mean arterial blood pressure (in words): vs DMSO; for effect on systolic blood pressure (in words): vs DMSO and captopril
Excerpt: A non-invasive method was used to measure the blood pressure and heart rate of the rats using the CODA machine from Kent Scientific Corporation. The rats were placed in a restraint (rat holder), to reduce agitation, and then placed on a warming pad of the machine (to reduce anxiety). The occlusion and volume pressure recording cuffs (O-cuff and VPR-cuff respectively) were placed onto the tail of the animal in that order respectively, in order to record the readings. The O-cuff terminates blood flow to the tail and then dilates slowly allowing for the physiological readings to be obtained from the returning blood flow, which is determined by the VPR sensor. The VPR-cuff is then used to measure the arterial pulsations as blood returns to the tail and it begins to swell. As the tail begins to swell the systolic blood pressure is measured, while the diastolic blood pressure is calculated when swelling stops.
The rats were trained within the restrain for three to four days prior to the measurements in order to reduce errors and an additional acclimatization period was done to allow the rats to relax prior to the basal blood pressure readings. […] The systolic and diastolic pressures, mean arterial pressure and the heart rate per minute was measured and about 20-25 readings were recorded and timed for approximately 30 minute including an allowance for acclimatization. […] Non-invasive blood pressure Measurement in Mice. […] Humana Press, which is herein incorporated by reference in its entirety.
A non-invasive method was used to measure the blood pressure and heart rate of the rats using the CODA-6-non-invasive machine from Kent Scientific Corporation. The rats were placed in a restraint (rat holder), to reduce agitation, which was then placed on a warming pad of the machine (to reduce anxiety). The occlusion and volume pressure recording cuffs (O-cuff and VPR-cuff respectively) were placed on to the tail of the animal in that order respectively, in order to record the readings. The O-cuff terminates blood flow to the tail and then dilates slowly allowing for the physiological readings to be obtained from the returning blood flow which is determined by the VPR sensor. The VPR-cuff then measured the arterial pulsations as blood returns to the tail and begins to swell. As the tail begins to swell the systolic blood pressure is measured, while the diastolic blood pressure is calculated when swelling stops.
The systolic and diastolic blood pressure, mean arterial pressure and the heart rate per minute was measured and about 20-25 readings were recorded and timed for approximately 30 minutes including acclimatization (FIGS. 17-28). […] Non-invasive blood pressure Measurement in Mice. […] Humana Press, which is herein incorporated by reference in its entirety.

[3] = system: rats; assay: Post-prandial blood insulin level, Mercodia ELISA; format: in vivo; details: 30 mg/kg BW IV in DMSO
Protocol: This was carried out using the Mercodia ELISA Diagnostic kit in order to deduce the plasma insulin and glucagon levels respectively. These levels were used to determine the effect of the compound fr1dbe, on glucose homeostasis, when compared with a positive methformin and a DMSO negative control.
The samples were administered intravenously and orally at their respective dosages. After 15 minutes 75 mg/kg BW of sodium pentabarbitol was administered to the rats via an intraperitoneal injection. Blood samples were then obtained from the renal artery of the rats and collected in the (red) vacutainer for the serum sample. The samples were then centrifuged at 3,000 r.p.m. for 10 minutes and stored at −20° C. until used.
The Mercodia ELISA is a direct technique utilizing two monoclonal antibodies of the insulin molecule, one of which binds to the microtitre well, while the other binds to the insulin within the sample. When the unbound antibody is removed, a reaction with 3,3′,5,5′-tetramethylbenzidine aids in detection and spectophotometric analysis after the reaction is stopped.
The enzyme conjugate solution and wash buffer solution were prepared prior to the experiment. 10 μL of the calibrators, samples and controls were pipetted into the microtitre wells in duplicate. […] The ELISA plate was read immediately at an optical density at 450 nm and the results calculated. […]

[4] = Solubility; format: physicochemical
[5] = general description of eicosane; cited from earlier work
[6] = system: normoglycaemic Sprague-Dawley rats; assay: Oral Glucose Tolerance Test (OGTT), samples administered orally (gavage); format: in vivo; details: 900 mg/kg BW orally vs water
Protocol: The hypoglycaemic principles of E. camaldulensis were also administered orally. Preliminary OGTT experiments at 200 and 500 mg/kg BW were done, and as a result the dosage was increased to 700 and 900 mg/kg BW. The glucose tolerance curves (GTC) were obtained similarly to the OGTT done via intravenous administration, in that the compound was administered after the fasting blood sample was obtained, however via a oral gavage (FIGS. 14-16).
A comparison was done of the oral administration of the fatty acids with the respective oil on the blood glucose concentration by using the OGTT done in order to deduce their effect. Oleic and palmitic acids are major constituents of olive oil and coconut oil respectively. As such, comparisons were made after OGTTs were carried out to determine the effect of olive oil, coconut oil and the combined product (2.3 olive oil:1 coconut oil), on blood glucose concentration.
An analysis of glucose tolerance curves to compare olive oil, FR2DBS (oleic acid) and the combined oil (FR2DBW; 2.3 olive oil:1 coconut oil) at 900 mg/kg BW vs the control (water) all administered orally, was conducted. […] See also FIG. 29.

[7] = 30 mg/kg BW, 10 minute interval
[8] = 30 mg/kg BW, 15 minute interval
[9] = 30 mg/kg BW intravenously, 90 minute interval (glycaemic peak)
[10] = 50 mg/kg BW, 10 minute interval
[11] = 50 mg/kg BW, 20 minute interval
[12] = 30 mg/kg BW, 20 minute interval

Q: What does the source list for `CCCCCCCCCCCCCCCCCCCC` [FR1DBE, eicosane]?
A: blood glucose concentration ([1]; 30 mg/kg BW intravenously, 60 minutes interval (fasting region)): 3.7 ± 0.154 mmol/L; blood glucose concentration ([1]; 30 mg/kg BW intravenously, 90 minute interval (glycaemic peak), listed as fr1dbe): 4.71 ± 1.43 mmol/L; heart rate [2, 7]: 386 ± 7.91 beats/min; systolic blood pressure (SBP) [2, 7]: 118.42±1.87 mmHg; diastolic blood pressure (DBP) [2, 8]: 84.0±0.98 mmHg; systolic blood pressure (SBP) [2, 8]: 122.21±1.1 mmHg; effect on mean arterial blood pressure (in words) ([2]; 30 mg/kg BW): significantly reduced; effect on systolic blood pressure (in words) ([2]; 30 mg/kg BW): significantly reduced; blood insulin level ([3]; after 3½ hours of administration (210 minute interval)): 0.259 ± 0.03 µg/L; blood insulin level ([3]; after the 90 minute interval): 0.214 ± 0.02 µg/L; solubility in water [4]: not soluble in water; solubility in alcohol [5]: soluble in alcohol

Q: For `CCCCCCCCCCCCCCCC(=O)O` [FR1DBY, palmitic acid], which blood glucose concentration [1, 9] is on record?
A: Its blood glucose concentration is 5.4 ± 0.163 mmol/L.

Q: What about the “difference in blood glucose from the control” value ([1]; 50 mg/kg BW IV, 90 minute interval, vs DMSO) of the same molecule?
A: The value was 1.06 mmol/L.

Q: What about the blood glucose concentration ([1]; 50 mg/kg BW intravenously, 90 minutes interval) of the same molecule?
A: The blood glucose concentration was 5.26 ± 0.183 mmol/L.

Q: And the “effect on blood glucose concentration (in words)” value [1]?
A: The value was “same effect as Metformin”.

Q: And the “effect on blood glucose concentration (in words)” value ([1]; listed as commercially available palmitic acid)?
A: Its value is “able to significantly lower the blood glucose concentration”.

Q: What about the “more effective dosage (hypoglycaemic effect)” value ([1]; IV OGTT, dose comparison) of the same molecule?
A: Its value is 50 mg/kg BW.

Q: And the “Hypoglycaemic effect compared with control” value [1]?
A: The value was “Significant”.

Q: What about the “effect on blood glucose level (in words)” value [6] of the same molecule?
A: The value was “able to significantly lower the area under the glucose tolerance curve; also recorded: able to lower the blood glucose concentration”.

Q: And the “diastolic blood pressure (DBP)” value [2, 10]?
A: The value was 81.93±1.74 mmHg.

Q: What about the heart rate [2, 10] of the same molecule?
A: The heart rate was 372.4 ± 3.07 beats/min.

Q: And the “mean arterial pressure (MAP)” value [2, 10]?
A: Its value is 95.67±1.77 mmHg.

Q: And the “systolic blood pressure (SBP)” value [2, 10]?
A: Its value is 123.42±1.27 mmHg.

Q: And the “systolic blood pressure (SBP)” value ([2]; 50 mg/kg BW, 15 minute interval)?
A: The value was 139.0±3.5 mmHg.

Q: What about the “diastolic blood pressure (DBP)” value [2, 11] of the same molecule?
A: The value was 93.79±3.14 mmHg.

Q: And the “mean arterial pressure (MAP)” value [2, 11]?
A: The value was 104.23±3.08 mmHg.

Q: Which blood glucose concentration [1, 9] does the source give for `CCCCCCCC/C=C\CCCCCCCC(=O)O` [FR2DBS, oleic acid] here?
A: Its blood glucose concentration is 5.23 ± 0.14 mmol/L.

Q: What about the “effect on blood glucose concentration (in words)” value [1] of the same molecule?
A: Its value is “significantly lower than the control”.

Q: And the “Hypoglycaemic effect compared with control” value [1]?
A: The value was “Significant”.

Q: And the “effect on blood glucose level (in words)” value [6]?
A: Its value is “able to lower the blood glucose concentration”.

Q: What about the “effect on blood glucose level (in words)” value ([6]; listed as oleic acid) of the same molecule?
A: Its value is “able to reduce the post-prandial glucose level”.

Q: What about the “diastolic blood pressure (DBP)” value [2, 7] of the same molecule?
A: The value was 93.42±1.74 mmHg.

Q: What about the heart rate [2, 7] of the same molecule?
A: The heart rate was 389 ± 7.27 beats/min.

Q: And the “diastolic blood pressure (DBP)” value [2, 8]?
A: The value was 93.21±1.33 mmHg.

Q: And the “mean arterial pressure (MAP)” value [2, 12]?
A: The value was 100.43±1.39 mmHg.

Q: What about the “effect on mean arterial blood pressure (in words)” value ([2]; 30 mg/kg BW) of the same molecule?
A: The value was “significant decrease”.

Q: What about the “effect on systolic blood pressure (in words)” value ([2]; 30 mg/kg BW) of the same molecule?
A: Its value is “very low and comparable to the effect caused by captopril”.

Q: Which results are given for `C[C@H](CS)C(=O)N1CCC[C@H]1C(=O)O` [captopril, reference compound]?
A: diastolic blood pressure (DBP) [2, 7]: 91.09±1.90 mmHg and 91±1.90 mmHg; heart rate [2, 7]: 413 beats/min and 412 beats/min; mean arterial pressure (MAP) [2, 7]: 110.86±1.71 mmHg; systolic blood pressure (SBP) [2, 7]: 131.35±1.50 mmHg and 130.92±1.50 mmHg and 130.93±1.50 mmHg; diastolic blood pressure (DBP) [2, 8]: 91.19±1.37 mmHg; heart rate [2, 8]: 401.0±6.28 BPM; diastolic blood pressure (DBP) [2, 12]: 93.30±1.58 mmHg; mean arterial pressure (MAP) [2, 12]: 105.07±2.06 mmHg; heart rate ([2]; 30 mg/kg BW, first 10 minutes): 399.93±6.91 BPM

Q: With `CN(C)C(=N)N=C(N)N` [metformin, reference compound] as the molecule, how does the “decrease in the blood sugar level compared with the control” value ([1]; 25 mg/kg BW IV, 90 minute interval, vs DMSO) read?
A: The value was 1.26 mmol/L.

Q: What about the blood glucose concentration ([1]; 25 mg/kg BW intravenously, 90 minute interval) of the same molecule?
A: Its blood glucose concentration is 5.07 ± 0.089 mmol/L and 5.07 ± 0.09 mmol/L.

Q: And the blood glucose concentration ([1]; 25 mg/kg BW intravenously, 90 minute interval, listed as Metformin)?
A: The blood glucose concentration was 5.06 ± 0.089 mmol/L and 5.07 ± 0.089 mmol/L.
